How the values were obtained:
Assay in all cases: relative viability (nuclei count vs DMSO), 5 days (fraction); higher = more cells survive
HOP-62 = test system: HOP-62
Summary of the method: (§1)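 After 5 days of treatment, lung cancer cells in 1536-well plates were fixed and stained in a single step (final 0.05% Triton X-100, 1% formaldehyde, 1 ug/ml Hoechst) and their nuclei counted on 4× images. Treatment had been applied by pin tool the day after seeding as one drug alone or as a fixed anchor-drug dose with five library-drug doses (not always all listed) in √10 steps. Relative viability is the nuclei count of treated wells divided by that of vehicle wells, and values are medians of duplicate plates.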

NCI-H727 = test system: NCI-H727
Summary of the method: as §1

SW 1573 = test system: SW 1573
Summary of the method: as §1

A-427 = test system: A-427
Summary of the method: as §1

NCI-H460 = test system: NCI-H460
Summary of the method: as §1

NCI-H2228 = test system: NCI-H2228
Summary of the method: as §1

CAL-12T = test system: CAL-12T
Summary of the method: as §1

NCI-H2009 = test system: NCI-H2009
Summary of the method: as §1

NCI-H1915 = test system: NCI-H1915
Summary of the method: as §1

COR-L 105 = test system: COR-L 105
Summary of the method: as §1

NCI-H1437 = test system: NCI-H1437
Summary of the method: as §1

HARA = test system: HARA
Summary of the method: as §1

HCC-827 = test system: HCC-827
Summary of the method: as §1

SK-LU-1 = test system: SK-LU-1
Summary of the method: as §1

EMC-BAC-2 = test system: EMC-BAC-2
Summary of the method: as §1

NCI-H23 = test system: NCI-H23
Summary of the method: as §1

NCI-H1395 = test system: NCI-H1395
Summary of the method: as §1

LCLC-103H = test system: LCLC-103H
Summary of the method: as §1

NCI-H522 = test system: NCI-H522
Summary of the method: as §1

HCC-366 = test system: HCC-366
Summary of the method: as §1

NCI-H1755 = test system: NCI-H1755
Summary of the method: as §1

NCI-H1792 = test system: NCI-H1792
Summary of the method: as §1

## COc1nc(C)cnc1NS(=O)(=O)c1cccnc1-c1ccc(-c2nnco2)cc1 [Zibotentan] + O=C(c1cc(Cc2n[nH]c(=O)c3ccccc23)ccc1F)N1CCN(C(=O)C2CC2)CC1 [Olaparib] (partner 8 µM)
HOP-62; first compound 0.08 µM
  relative viability: 0.429
HOP-62; first compound 0.253 µM
  relative viability: 0.34
HOP-62; first compound 0.8 µM
  relative viability: 0.503
HOP-62; first compound 2.53 µM
  relative viability: 0.502
NCI-H727; first compound 0.08 µM
  relative viability: 0.712
NCI-H727; first compound 0.253 µM
  relative viability: 0.586
NCI-H727; first compound 0.8 µM
  relative viability: 0.661
NCI-H727; first compound 2.53 µM
  relative viability: 0.868
SW 1573; first compound 0.08 µM
  relative viability: 0.557
SW 1573; first compound 0.8 µM
  relative viability: 0.544
SW 1573; first compound 2.53 µM
  relative viability: 0.459
A-427; first compound 0.08 µM
  relative viability: 0.755
A-427; first compound 0.253 µM
  relative viability: 0.704
A-427; first compound 0.8 µM
  relative viability: 0.64
A-427; first compound 2.53 µM
  relative viability: 0.799
NCI-H460; first compound 0.08 µM
  relative viability: 0.42
NCI-H460; first compound 0.253 µM
  relative viability: 0.346
NCI-H460; first compound 0.8 µM
  relative viability: 0.322
NCI-H460; first compound 2.53 µM
  relative viability: 0.481
NCI-H2228; first compound 0.08 µM
  relative viability: 0.658
NCI-H2228; first compound 0.253 µM
  relative viability: 0.573
NCI-H2228; first compound 0.8 µM
  relative viability: 0.863
NCI-H2228; first compound 2.53 µM
  relative viability: 0.924
CAL-12T; first compound 0.08 µM
  relative viability: 0.742
CAL-12T; first compound 0.253 µM
  relative viability: 0.67
CAL-12T; first compound 0.8 µM
  relative viability: 0.768
CAL-12T; first compound 2.53 µM
  relative viability: 0.664
NCI-H2009; first compound 0.08 µM
  relative viability: 0.688
NCI-H2009; first compound 0.253 µM
  relative viability: 0.589
NCI-H2009; first compound 0.8 µM
  relative viability: 0.671
NCI-H2009; first compound 2.53 µM
  relative viability: 0.787
NCI-H1915; first compound 0.08 µM
  relative viability: 0.31
NCI-H1915; first compound 0.253 µM
  relative viability: 0.277
NCI-H1915; first compound 0.8 µM
  relative viability: 0.254
NCI-H1915; first compound 2.53 µM
  relative viability: 0.24
COR-L 105; first compound 0.08 µM
  relative viability: 0.68
COR-L 105; first compound 0.253 µM
  relative viability: 0.605
COR-L 105; first compound 0.8 µM
  relative viability: 0.721
COR-L 105; first compound 2.53 µM
  relative viability: 0.784
NCI-H1437; first compound 0.08 µM
  relative viability: 0.64
NCI-H1437; first compound 0.253 µM
  relative viability: 0.629
NCI-H1437; first compound 0.8 µM
  relative viability: 0.617
NCI-H1437; first compound 2.53 µM
  relative viability: 0.621
HARA; first compound 0.08 µM
  relative viability: 0.856
HARA; first compound 0.8 µM
  relative viability: 0.455
HARA; first compound 2.53 µM
  relative viability: 0.883
HCC-827; first compound 0.08 µM
  relative viability: 0.64
HCC-827; first compound 0.253 µM
  relative viability: 0.647
HCC-827; first compound 0.8 µM
  relative viability: 0.667
HCC-827; first compound 2.53 µM
  relative viability: 0.669
SK-LU-1; first compound 0.08 µM
  relative viability: 0.507
SK-LU-1; first compound 0.253 µM
  relative viability: 0.477
SK-LU-1; first compound 0.8 µM
  relative viability: 0.579
SK-LU-1; first compound 2.53 µM
  relative viability: 0.615
EMC-BAC-2; first compound 0.08 µM
  relative viability: 0.519
EMC-BAC-2; first compound 0.8 µM
  relative viability: 0.562
EMC-BAC-2; first compound 2.53 µM
  relative viability: 0.461
NCI-H23; first compound 0.08 µM
  relative viability: 0.266
NCI-H23; first compound 0.253 µM
  relative viability: 0.235
NCI-H23; first compound 0.8 µM
  relative viability: 0.242
NCI-H23; first compound 2.53 µM
  relative viability: 0.251
NCI-H1395; first compound 0.08 µM
  relative viability: 0.401
NCI-H1395; first compound 0.253 µM
  relative viability: 0.486
NCI-H1395; first compound 0.8 µM
  relative viability: 0.436
NCI-H1395; first compound 2.53 µM
  relative viability: 0.495
LCLC-103H; first compound 0.08 µM
  relative viability: 0.738
LCLC-103H; first compound 0.253 µM
  relative viability: 0.74
LCLC-103H; first compound 0.8 µM
  relative viability: 0.696
LCLC-103H; first compound 2.53 µM
  relative viability: 0.751
NCI-H522; first compound 0.08 µM
  relative viability: 0.65
NCI-H522; first compound 0.253 µM
  relative viability: 0.75
NCI-H522; first compound 0.8 µM
  relative viability: 0.681
NCI-H522; first compound 2.53 µM
  relative viability: 0.703
HCC-366; first compound 0.08 µM
  relative viability: 0.396
HCC-366; first compound 0.253 µM
  relative viability: 0.34
HCC-366; first compound 0.8 µM
  relative viability: 0.342
HCC-366; first compound 2.53 µM
  relative viability: 0.365
NCI-H1755; first compound 0.08 µM
  relative viability: 0.893
NCI-H1755; first compound 0.253 µM
  relative viability: 0.846
NCI-H1755; first compound 0.8 µM
  relative viability: 0.908
NCI-H1755; first compound 2.53 µM
  relative viability: 0.907
NCI-H1792; first compound 0.08 µM
  relative viability: 0.235
NCI-H1792; first compound 0.253 µM
  relative viability: 0.408
NCI-H1792; first compound 0.8 µM
  relative viability: 0.323
NCI-H1792; first compound 2.53 µM
  relative viability: 0.373
